Assay results reported in US20160158200A1, “Combinations of Hepatitis C Virus Inhibitors” (priority 2013, published 2016).

tested on: HCV genotype-1a variant with glutamine 30 changed to glutamate in the NS5A protein; assay type: cell-based; conditions: test compound titrated with BMS-790052 fixed at 200 nM; genotype 1a Q30E replicon
Description: The NS5A synergistic inhibitory effect of test compounds can be determined using various amounts of an NS5A-targeting compound with titration of a second compound of interest. […] In one embodiment, the HCV genotype strain can be genotype 1a containing a change at amino acid 30 of the NS5A protein consisting of glutamine to glutamate. The test compound can be chosen from compounds listed above or from others present in the literature.

Row | SMILES | Fold-Synergistic 1a (Q30E)
1 | CC(C)[C@H](NC(=O)C(=O)C1(C)CCCC1)c1ncc(-c2ccc(-c3ccc(-c4cnc([C@@H](NC(=O)C(=O)C5(C)CCCC5)C(C)C)[nH]4)cc3)cc2)[nH]1 [Compound P-114] | >100 fold
2 | CC(C)[C@H](NC(=O)C(=O)C1(O)CCC(F)(F)CC1)c1ncc(-c2ccc(-c3ccc(-c4cnc([C@@H](NC(=O)C(=O)C5(O)CCC(F)(F)CC5)C(C)C)[nH]4)cc3)cc2)[nH]1 [Compound P-125] | >100 fold
3 | CC[C@@H](NC(=O)OC)C(=O)N[C@H](c1ncc(-c2ccc(-c3ccc(-c4cnc([C@@H](NC(=O)[C@@H](CC)NC(=O)OC)C(C)C)[nH]4)cc3)cc2)[nH]1)C(C)C [Compound P-104] | >100 fold
4 | CC(C)[C@H](NC(=O)/C=C/c1ccccc1)c1ncc(-c2ccc(-c3ccc(-c4cnc([C@@H](NC(=O)/C=C/c5ccccc5)C(C)C)[nH]4)cc3)cc2)[nH]1 [Compound S-43] | >100 fold
5 | CC(C)[C@H](NC(=O)C(C)(C)F)c1ncc(-c2ccc3c(c2)CCc2cc(-c4cnc([C@@H](NC(=O)C(C)(C)F)C(C)C)[nH]4)ccc2-3)[nH]1.O=C(O)C(F)(F)F [Compound N-75] | >100 fold
6 | COC1(C(=O)N[C@H](c2nc(-c3ccc(-c4ccc(-c5c[nH]c([C@@H](NC(=O)C6(OC)CCC(F)(F)CC6)C(C)(C)C)n5)cc4)cc3)c[nH]2)C(C)(C)C)CCC(F)(F)CC1 [Compound P-34] | >100 fold
7 | CC(O)C1(C(=O)N[C@H](c2nc(-c3ccc(-c4ccc(-c5c[nH]c([C@@H](NC(=O)C6(C(C)O)CCCCC6)C(C)(C)C)n5)cc4)cc3)c[nH]2)C(C)(C)C)CCCCC1 (single isomer, unassigned) [Compound N-152B] | >100 fold
8 | CC(C)(C)[C@H](NC(=O)C1CCC(F)(F)CC1)c1ncc(-c2ccc(-c3cc4ccc(-c5cnc([C@@H](NC(=O)C6CCC(F)(F)CC6)C(C)(C)C)[nH]5)cc4o3)cc2)[nH]1 [Compound B61] | >100 fold
9 | COC(CO)(CC(C)C)C(=O)N[C@H](c1nc(-c2ccc(-c3ccc(-c4c[nH]c([C@@H](NC(=O)C(CO)(CC(C)C)OC)C(C)(C)C)n4)cc3)cc2)c[nH]1)C(C)(C)C (single isomer, unassigned) [Compound N-160B] | >100 fold
10 | CC(C)[C@H](NC(=O)C(C)(C)C)c1nc2ccc(C#Cc3ccc4nc([C@@H](NC(=O)C(C)(C)C)C(C)C)[nH]c4c3)cc2[nH]1.O=C(O)C(F)(F)F [Compound B43] | >100 fold
11 | Cc1cc(-c2c[nH]c(C3CC[C@H](C)N3C(=O)C(=O)N3CCC(F)(F)CC3)n2)ccc1-c1ccc(-c2c[nH]c(C3CC[C@H](C)N3C(=O)C(=O)N3CCC(F)(F)CC3)n2)cc1 (stereo partly shown) [Compound W-242] | >100 fold
12 | CC(C)(C)[C@H](NC(=O)C1CC(=O)C1)c1nc(-c2ccc(-c3ccc(-c4c[nH]c([C@@H](NC(=O)C5CC(=O)C5)C(C)(C)C)n4)cc3)cc2)c[nH]1 [Compound W-171] | >100 fold
13 | CC1(O)CC(C(=O)N[C@H](c2nc(-c3ccc(-c4ccc(-c5c[nH]c([C@@H](NC(=O)C6CC(C)(O)C6)C(C)(C)C)n5)cc4)cc3)c[nH]2)C(C)(C)C)C1 (single isomer, unassigned) [Compound W-169] | >100 fold
14 | Cc1onc(-c2ccccc2)c1C(=O)N1CCC[C@H]1c1ncc(-c2ccc(-c3ccc(-c4cnc([C@@H]5CCCN5C(=O)c5c(-c6ccccc6)noc5C)[nH]4)cc3)cc2)[nH]1 [Compound S-118] | <10 fold
15 | COC(=O)N1C[C@H](F)C[C@@]1(C)C(=O)N[C@H](c1nc(-c2ccc(-c3ccc(-c4c[nH]c([C@@H](NC(=O)[C@]5(C)C[C@@H](F)CN5C(=O)OC)C(C)(C)C)n4)cc3)cc2)c[nH]1)C(C)(C)C [Compound W-210] | >100 fold
16 | CC(C)(C)[C@H](NC(=O)C1CCC(F)(F)CC1)c1ncc(-c2ccc(-c3ccc(-c4cnc([C@@H](NC(=O)C5CCC(F)(F)CC5)C(C)(C)C)[nH]4)s3)cc2)[nH]1 [Compound B57] | >100 fold
17 | CC(C)(C)[C@H](NC(=O)C1(C(F)(F)F)CCC1)c1nc(-c2ccc(-c3ccc(-c4c[nH]c([C@@H](NC(=O)C5(C(F)(F)F)CCC5)C(C)(C)C)n4)cc3)cc2)c[nH]1 [Compound L-129] | >100 fold
18 | CC(C)N(C(=O)C(=O)N[C@H](c1nc(-c2ccc(-c3ccc(-c4c[nH]c([C@@H](NC(=O)C(=O)N(C(C)C)C5CC5)C5(C)CC5)n4)cc3)cc2)c[nH]1)C1(C)CC1)C1CC1 [Compound W-58] | >100 fold
19 | CC(C)[C@H](NC(=O)N1CCCC1)c1ncc(-c2ccc(-c3ccc(-c4cnc([C@@H](NC(=O)N5CCCC5)C(C)C)[nH]4)cc3)cc2)[nH]1 [Compound S-232] | >100 fold
20 | CC(C)[C@H](NC(=O)C1CCC(F)(F)CC1)c1ncc(-c2ccc(C#Cc3ccc4nc([C@@H](NC(=O)C5CCC(F)(F)CC5)C(C)C)[nH]c4c3)cc2)[nH]1 [Compound B51] | >100 fold

Row | SMILES | Fold-Synergistic 1a (Q30E)
21 | Cc1cc(-c2ccc(-c3c[nH]c([C@@H](NC(=O)c4c(F)cccc4Cl)C(C)C)n3)cc2)ccc1-c1c[nH]c([C@@H](NC(=O)c2c(F)cccc2Cl)C(C)C)n1.O=C(O)C(F)(F)F [Compound N-81] | >100 fold
22 | CC(C)OC(=O)N1CCC[C@H]1c1ncc(-c2ccc(-c3ccc(-c4cnc([C@@H]5CCCN5C(=O)OC(C)C)[nH]4)cc3)cc2)[nH]1 [Compound S-220] | >10 fold
23 | CN(C(=O)OCCF)C(C)(C)C(=O)N[C@H](c1nc(-c2ccc(-c3ccc(-c4c[nH]c([C@@H](NC(=O)C(C)(C)N(C)C(=O)OCCF)C(C)(C)C)n4)cc3)cc2)c[nH]1)C(C)(C)C [Compound L-20] | >100 fold
24 | C[C@H]1CCN(C(=O)C(=O)N2CCC(F)(F)CC2)C1c1nc(-c2ccc(-c3ccc(-c4c[nH]c(C5[C@@H](C)CCN5C(=O)C(=O)N5CCC(F)(F)CC5)n4)cc3)cc2)c[nH]1 (stereo partly shown) [Compound W-186] | >100 fold
25 | CC(C)COC(=O)N[C@H](c1ncc(-c2ccc(-c3ccc(-c4cnc([C@@H](NC(=O)OCC(C)C)C(C)C)[nH]4)cc3)cc2)[nH]1)C(C)C [Compound S-211] | >100 fold
26 | CC(C)(C(=O)N[C@H](c1nc(-c2ccc(-c3ccc(-c4cnc([C@@H](NC(=O)C(C)(C)C5CC5)C(C)(C)C)[nH]4)cc3)cc2)c[nH]1)C(C)(C)C)C1CC1 [Compound B-167] | >100 fold
27 | CC(C)[C@H](NC(=O)CC1CC1)c1ncc(-c2ccc(-c3ccc(-c4cnc([C@@H](NC(=O)CC5CC5)C(C)C)[nH]4)cc3)cc2)[nH]1 [Compound S-50] | >10 fold
28 | C[C@H]1CCN(C(=O)C2CCC(F)(F)CC2)C1c1nc(-c2ccc(-c3ccc(-c4c[nH]c([C@@H]5[C@@H](C)CCN5C(=O)C5CCC(F)(F)CC5)n4)cc3)cc2)c[nH]1 (stereo partly shown) [Compound W-188] | >10 fold
29 | CC1([C@H](NC(=O)C(C)(C)C(C)(C)O)c2nc3ccc(C#Cc4ccc5nc([C@@H](NC(=O)C(C)(C)C(C)(C)O)C6(C)CC6)[nH]c5c4)cc3[nH]2)CC1 [Compound B68] | >100 fold
30 | CC(C)[C@H](NC(=O)[C@@]1(C)CCC(F)(F)CO1)c1nc(-c2ccc3c(c2)CCc2cc(-c4c[nH]c([C@@H](NC(=O)[C@@]5(C)CCC(F)(F)CO5)C(C)C)n4)ccc2-3)c[nH]1 [Compound N-131] | >100 fold
31 | CC(C)[C@H](NC(=O)C1CCCCO1)c1ncc(-c2ccc(-c3ccc(-c4cnc([C@@H](NC(=O)C5CCCCO5)C(C)C)[nH]4)cc3)cc2)[nH]1 (single isomer, unassigned) [Compound Y-55] | >10 fold
32 | CC(C)(C(=O)N[C@H](c1nc(-c2ccc(-c3ccc(-c4c[nH]c([C@@H](NC(=O)C(C)(C)C(O)C5CC(F)(F)C5)C(C)(C)C)n4)cc3)cc2)c[nH]1)C(C)(C)C)C(O)C1CC(F)(F)C1 (single isomer, unassigned) [Compound N-144A] | >100 fold
33 | CC(C)[C@H](NC(=O)c1ccno1)c1ncc(-c2ccc(-c3ccc(-c4cnc([C@@H](NC(=O)c5ccno5)C(C)C)[nH]4)cc3)cc2)[nH]1 [Compound S-100] | >100 fold
34 | CC(C)OC(=O)N1C2CCC1(C(=O)N[C@H](c1nc(-c3ccc(-c4ccc(-c5c[nH]c([C@@H](NC(=O)C67CCC(CC6)N7C(=O)OC(C)C)C(C)(C)C)n5)cc4)cc3)c[nH]1)C(C)(C)C)CC2.O=C(O)C(F)(F)F.O=C(O)C(F)(F)F [Compound W-118] | >100 fold
35 | CC1CCCCN1C(=O)C(=O)NC(c1nc(-c2ccc(-c3ccc(-c4c[nH]c(C(NC(=O)C(=O)N5CCCCC5C)C(C)(C)C)n4)cc3)cc2)c[nH]1)C(C)(C)C (stereo not shown) [Compound W-38] | >100 fold
36 | CC(C)(C)[C@H](NC(=O)C1CCC(F)(F)CC1)c1ncc(CCc2ccc3cc(-c4cnc([C@@H](NC(=O)C5CCC(F)(F)CC5)C(C)(C)C)[nH]4)ccc3c2)[nH]1 [Compound B6] | >100 fold
37 | CC1(C(=O)N2CCC[C@H]2c2ncc(-c3ccc(-c4ccc(-c5cnc([C@@H]6CCCN6C(=O)C6(C)CC6)[nH]5)cc4)cc3)[nH]2)CC1 [Compound S-160] | <10 fold
38 | CC(C)(C)[C@H](NC(=O)C1CC12CCC(F)(F)CC2)c1nc(-c2ccc(-c3ccc(-c4c[nH]c([C@@H](NC(=O)C5CC56CCC(F)(F)CC6)C(C)(C)C)n4)cc3)cc2)c[nH]1 (single isomer, unassigned) [Compound Y-95] | >100 fold
39 | CC1(C)CCN(C(=O)C(=O)c2ccccc2)C1c1nc(-c2ccc(-c3ccc(-c4c[nH]c(C5N(C(=O)C(=O)c6ccccc6)CCC5(C)C)n4)cc3)cc2)c[nH]1 (stereo not shown) [Compound W-224] | >10 fold
40 | CC(C)(CF)[C@H](NC(=O)C1CCC(F)(F)CC1)c1ncc(-c2ccc(-c3ccc(-c4cnc([C@@H](NC(=O)C5CCC(F)(F)CC5)C(C)(C)CF)[nH]4)cc3)cc2)[nH]1 [Compound Y-69] | >100 fold
